From US10385097B2, “Ether compounds for treatment of medical disorders” (Achillion Pharmaceuticals, Inc., priority 2015, dated 2019) come the findings set out here.

The assay deals with T1, Human Factor D (Homo sapiens, UniProt P00746).
T1 construct: purified from human serum; purchased Complement Technology, Inc; host or cells: human serum (natural protein, not recombinant)
T1 sequence (P00746 26-253): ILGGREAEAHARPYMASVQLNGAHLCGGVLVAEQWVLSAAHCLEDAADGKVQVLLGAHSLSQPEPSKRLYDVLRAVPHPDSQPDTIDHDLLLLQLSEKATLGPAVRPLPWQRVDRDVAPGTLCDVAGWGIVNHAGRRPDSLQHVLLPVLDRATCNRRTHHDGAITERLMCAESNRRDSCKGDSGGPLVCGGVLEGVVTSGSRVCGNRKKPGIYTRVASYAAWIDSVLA
The assay is described as follows: Human Factor D Assay. The settings on record: Table 3; Human Factor D 80 nM, substrate Z-L-Lys-SBzl; read-out: (IC50 (Stars)). It counts as biochemical. The procedure, abridged: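 Serum-purified factor D (80 nM final) preincubated 5 min at room temperature with compound in 50 mM Tris, 1 M NaCl, pH 7.5. Reaction started with 100 μM Z-L-Lys-SBzl plus 100 μM DTNB; A405 read every 30 s for 30 min; IC50 by nonlinear regression of rates.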
`COc1cc(Br)nc(NC(=O)[C@@H]2C[C@@H](F)CN2C(=O)Cn2nc(C(C)=O)c3cc(Oc4ncc(C)cn4)ccc32)c1` [Compound 174, (2S,4R)-1-(2-(3-Acetyl-5-((5-methylpyrimidin-2-yl)oxy)-1H-indazol-1-yl)acetyl)-N-(6-bromo-4-methoxypyridin-2-yl)-4-fluoropyrrolidine-2-carboxamide]: the IC50 was less than 1000 nM. On to `CC(=O)c1nn(CC(=O)N2C[C@H](F)C[C@H]2C(=O)Nc2cccc(Br)n2)c2ccc(Oc3cnc(C)cn3)cc12` [Compound 175, (2S,4R)-1-(2-(3-Acetyl-5-((5-methylpyrazin-2-yl)oxy)-1H-indazol-1-yl)acetyl)-N-(6-bromopyridin-2-yl)-4-fluoropyrrolidine-2-carboxamide], for which the IC50 is less than 1000 nM. For `CC(=O)c1nn(CC(=O)N2C[C@H](F)C[C@H]2C(=O)Nc2ccc(F)c(Br)n2)c2ccc(Oc3ncc(C)cn3)cc12` [Compound 176, (2S,4R)-1-(2-(3-Acetyl-5-((5-methylpyrimidin-2-yl)oxy)-1H-indazol-1-yl)acetyl)-N-(6-bromo-5-fluoropyridin-2-yl)-4-fluoropyrrolidine-2-carboxamide], the IC50 is less than 1000 nM. Next, `CC(=O)c1nn(CC(=O)N2[C@@H]3C[C@@H]3C[C@H]2C(=O)Nc2ccc(F)c(Br)n2)c2ccc(Oc3ncc(C)cn3)cc12` [Compound 177, (1R,3S,5R)-2-(2-(3-Acetyl-5-((5-methylpyrimidin-2-yl)oxy)-1H-indazol-1-yl)acetyl)-N-(6-bromo-5-fluoropyridin-2-yl)-2-azabicyclo[3.1.0]hexane-3-carboxamide]: less than 1000 nM; `CC(=O)c1nn(CC(=O)N2C[C@H](F)C[C@H]2C(=O)Nc2ccc(F)c(Br)n2)c2ccc(Oc3cnc(C)cn3)cc12` [Compound 178, (2S,4R)-1-(2-(3-Acetyl-5-((5-methylpyrazin-2-yl)oxy)-1H-indazol-1-yl)acetyl)-N-(6-bromo-5-fluoropyridin-2-yl)-4-fluoropyrrolidine-2-carboxamide]: less than 1000 nM. Next, `CC(=O)c1nn(CC(=O)N2C[C@H](F)C[C@H]2C(=O)Nc2nc(Br)ccc2C)c2ccc(Oc3cnc(C)cn3)cc12` [Compound 179, (2S,4R)-1-(2-(3-Acetyl-5-((5-methylpyrazin-2-yl)oxy)-1H-indazol-1-yl)acetyl)-N-(6-bromo-3-methylpyridin-2-yl)-4-fluoropyrrolidine-2-carboxamide]: less than 1000 nM; `CC(=O)c1nn(CC(=O)N2C[C@H](F)C[C@H]2C(=O)Nc2cccc(Br)n2)c2ccc(Oc3cc(C)ncn3)cc12` [Compound 180, (2S,4R)-1-(2-(3-Acetyl-5-((6-methylpyrimidin-4-yl)oxy)-1H-indazol-1-yl)acetyl)-N-(6-bromopyridin-2-yl)-4-fluoropyrrolidine-2-carboxamide]: less than 1000 nM.

On to `CCOP(=O)(COc1ccc2c(c1)c(C(N)=O)cn2CC(=O)N1[C@@H]2CC[C@@H](C2)[C@H]1C(=O)Nc1cccc(C)n1)OCC` [Compound 182, diethyl (((3-Carbamoyl-1-(2-((1R,3S,4S)-3-((6-methylpyridin-2-yl)carbamoyl)-2-azabicyclo[2.2.1]heptan-2-yl)-2-oxoethyl)-1H-indol-5-yl)oxy)methyl)phosphonate], for which the IC50 was greater than 10000 nM. Consider `Cc1cccc(NC(=O)[C@@H]2[C@H]3CC[C@H](C3)N2C(=O)Cn2cc(C(N)=O)c3cc(OCP(=O)(O)O)ccc32)n1` [Compound 183, (((3-carbamoyl-1-(2-((1R,3S,4S)-3-((6-methylpyridin-2-yl)carbamoyl)-2-azabicyclo[2.2.1]heptan-2-yl)-2-oxoethyl)-1H-indol-5-yl)oxy)methyl)phosphonic acid], for which the IC50 is greater than 10000 nM.

Regarding `CC(=O)c1nn(CC(=O)N2C[C@H]3C[C@H]3[C@H]2C(=O)Nc2nc(Br)ccc2C2CC2)c2ccc(O[C@@H]3CO[C@H]4[C@@H]3OC[C@H]4O)cc12` [Compound 184, (1R,2S,5S)-3-(2-(3-Acetyl-5-((3R,3aR,6R,6aR)-6-hydroxyhexahydrofuro[3,2-b]furan-3-yloxy)-1H-indazol-1-yl)acetyl)-N-(6-bromo-3-cyclopropylpyridin-2-yl)-3-azabicyclo[3.1.0]hexane-2-carboxamide], the IC50 is less than 1000 nM.

As to `CC(=O)c1nn(CC(=O)N2C[C@H]3C[C@H]3[C@H]2C(=O)Nc2nc(Br)ccc2C)c2ccc(O[C@@H]3CO[C@H]4[C@@H]3OC[C@H]4O)cc12` [Compound 185, (1R,2S,5S)-3-(2-(3-Acetyl-5-((3R,3aR,6R,6aR)-6-hydroxyhexahydrofuro[3,2-b]furan-3-yloxy)-1H-indazol-1-yl)acetyl)-N-(6-bromo-3-methylpyridin-2-yl)-3-azabicyclo[3.1.0]hexane-2-carboxamide], the IC50 is less than 1000 nM.

As to `Cc1cccc(NC(=O)[C@@H]2[C@H]3CC[C@H](C3)N2C(=O)Cn2cc(C(N)=O)c3cc(OCS(=O)(=O)NC(C)(C)C)ccc32)n1` [Compound 186, 5-((N-(tert-butyl)sulfamoyl)methoxy)-1-(2-((1R,3S,4S)-3-((6-methylpyridin-2-yl)carbamoyl)-2-azabicyclo[2.2.1]heptan-2-yl)-2-oxoethyl)-1H-indole-3-carboxamide], the IC50 is greater than 10000 nM. For the compound `Cc1cccc(NC(=O)[C@@H]2[C@H]3CC[C@H](C3)N2C(=O)Cn2cc(C(N)=O)c3cc(OCS(N)(=O)=O)ccc32)n1` [Compound 187, 1-(2-((1R,3S,4S)-3-((6-Methylpyridin-2-yl)carbamoyl)-2-azabicyclo[2.2.1]heptan-2-yl)-2-oxoethyl)-5-(sulfamoylmethoxy)-1H-indole-3-carboxamide], the IC50 is greater than 10000 nM. Consider `CC(=O)c1nn(CC(=O)N2C[C@H](F)C[C@H]2C(=O)Nc2cccc(Br)n2)c2ccc(OC3CCOC3)cc12` (stereo partly drawn) [Compound 193, (2S,4R)-1-(2-(3-acetyl-5-((tetrahydrofuran-3-yl)oxy)-1H-indazol-1-yl)acetyl)-N-(6-bromopyridin-2-yl)-4-fluoropyrrolidine-2-carboxamide], for which the IC50 was less than 1000 nM. For `CC(=O)c1nn(CC(=O)N2C[C@H](F)C[C@H]2C(=O)Nc2cccc(Br)n2)c2ccc(OC3CCCC3)cc12` [Compound 194, (2S,4R)-1-(2-(3-acetyl-5-(cyclopentyloxy)-1H-indazol-1-yl)acetyl)-N-(6-bromopyridin-2-yl)-4-fluoropyrrolidine-2-carboxamide], the IC50 was less than 1000 nM. For the compound `CC(=O)c1nn(CC(=O)N2C[C@H](F)C[C@H]2C(=O)Nc2cccc(Br)n2)c2ccc(O[C@@H]3CO[C@H]4[C@@H]3OC[C@H]4O)cc12` [Compound 200, (2S,4R)-1-(2-(3-acetyl-5-(((3R,3aR,6R,6aR)-6-hydroxy-hexahydrofuro[3,2-b]furan-3-yl)oxy)-1H-indazol-1-yl)acetyl)-N-(6-bromopyridin-2-yl)-4-fluoropyrrolidine-2-carboxamide], the IC50 was less than 1000 nM. Regarding `CC(=O)c1nn(CC(=O)N2C[C@H](F)C[C@H]2C(=O)Nc2cccc(Br)n2)c2cc(OCP(=O)(O)O)ccc12` [Compound 201, (((3-acetyl-1-(2-((2S,4R)-2-((6-bromopyridin-2-yl)carbamoyl)-4-fluoropyrrolidin-1-yl)-2-oxoethyl)-1H-indazol-6-yl)oxy)methyl)phosphonic acid], the IC50 was less than 1000 nM. Consider `CC(=O)c1nn(CC(=O)N2[C@H](C(=O)Nc3cccc(Br)n3)C[C@@]3(C)C[C@@H]23)c2cc(OCP(=O)(O)O)ccc12` [Compound 250, (((3-acetyl-1-(2-((1R,3S,5R)-3-((6-bromopyridin-2-yl)carbamoyl)-5-methyl-2-azabicyclo[3.1.0]hexan-2-yl)-2-oxoethyl)-1H-indazol-6-yl)oxy)methyl)phosphonic acid], for which the concentration for half-maximal inhibition (IC50) was less than 1000 nM. With `CC(=O)c1cn(CC(=O)N2C[C@H](F)C[C@H]2C(=O)Nc2cccc(-c3ccccc3Cl)c2F)c2ccc(OCC[S+]([O-])CC(C)(CO)CO)cc12` (stereo partly drawn) [Compound 251, (2S,4R)-1-(2-(3-acetyl-5-(2-(3-hydroxy-2-(hydroxymethyl)-2-methyl-propylsulfinyl)ethoxy)-1H-indol-1-yl)acetyl)-N-(2′-chloro-2-fluorobiphenyl-3-yl)-4-fluoropyrrolidine-2-carboxamide], the IC50 was less than 1000 nM. Turning to `CC(=O)c1cn(CC(=O)N2C[C@H](F)C[C@H]2C(=O)Nc2cccc(-c3ccccc3Cl)c2F)c2ccc(OCC[S+]([O-])CC3(C)COC3)cc12` (stereo partly drawn) [Compound 252, (2S,4R)-1-(2-(3-acetyl-5-(2-((3-methyloxetan-3-yl)methylsulfinyl)ethoxy)-1H-indol-1-yl)acetyl)-N-(2′-chloro-2-fluorobiphenyl-3-yl)-4-fluoropyrrolidine-2-carboxamide], the IC50 is less than 1000 nM. `CC(=O)c1cn(CC(=O)N2C[C@H](F)C[C@H]2C(=O)Nc2cccc(-c3ccccc3Cl)c2F)c2ccc(OCCS(=O)(=O)CC3(C)COC3)cc12` [Compound 253, (2S,4R)-1-(2-(3-acetyl-5-(2-((3-methyloxetan-3-yl)methylsulfonyl)ethoxy)-1H-indol-1-yl)acetyl)-N-(2′-chloro-2-fluorobiphenyl-3-yl)-4-fluoropyrrolidine-2-carboxamide]: the IC50 was less than 1000 nM.

Broadly, the IC50 is the midpoint of a concentration-inhibition curve.
